Experimental data as given in EP3318253B1, “COMPOSITIONS COMPRISING WNT INHIBITORS FOR TREATING CANCER” (Schmidt-Wolf, Ingo, priority 2010, dated 2012).

What was measured:
[1] = tested on: OPM-2, U266 and RPMI 8226 cells; experiment: Cell viability by DiOC6 staining in myeloma cell lines (mean IC50, combinations); type: cell-based, human; conditions: Homo sapiens; mean of the IC50 results in OPM-2, U266 and RPMI 8226 cells
Procedure: A mean IC50 value in myeloma cells was determined using the mean of the IC50 results determined in OPM-2, U266 and RPMI 8226 cells.
(§1) • Figure 1. […] Data are shown as mean ± SD. • Figure 2. […] Data are shown as mean ± SD. • Figure 3. […] (A) Flow cytometric results. […] Finally, ECL reagent was utilized for detection. • Figure 4C. […] Finally, ECL reagent was utilized for detection. • Figure 5. Effect of EA on viability of myeloma primary cells. […] Results represent data from two separate experiments. Data are shown as mean. • Figure 6. […] (A) Tumor growth and (B) overall survival were measured. Six animals were assayed per group.
Experiments were performed as reported recently. […]

[2] = tested on: primary myeloma cells derived from bone marrow from patients with multiple myeloma; experiment: Viability of myeloma primary cells from bone marrow; type: cell-based, human; conditions: incubated three days; preliminary data
Procedure: Bone marrow samples from patients with myeloma were taken after informed consent, single cell suspensions generated and cells ficolled. Cells were incubated with or without EA for three days and measured for viability.
as §1
Bone marrow samples from patients with myeloma were taken after informed consent, single cell suspensions generated and cells ficolled. Cells were incubated with or without CIC for three days and measured for viability.
Bone marrow samples from patients with myeloma were taken after informed consent, single cell suspensions generated and cells ficolled. Cells were incubated with or without GF for three days and measured for viability.

OPM-2 myeloma cells = experiment: Cell viability by DiOC6 staining, flow cytometry; type: cell-based, human; conditions: Homo sapiens, 72 h; OPM-2; 1x10^5 cells cultured three days, various concentrations
Procedure: (§2) Experiments were performed as reported recently.
(§3) PBL derived from healthy individuals were used as controls. […] ND, not done.

primary CLL cells = conditions: earlier work of the group; cited from earlier work
beta catenin = experiment: Western blot, Wnt/beta catenin pathway in lymphoma cells; type: cell-based, human
Procedure: (§4) Western blot was performed as described recently^16.
as §1
(§5) Western blot was performed as described recently.
(§6) • Figure 7. […] Data are shown as mean ± SD. • Figure 8. […] Data are shown as mean ± SD. • Figure 9. Effect of CIC on the Wnt/beta catenin pathway. (A) Flow cytometric results. […] Finally, ECL reagent was utilized for detection. • Figure 10C. […] Finally, ECL reagent was utilized for detection. • Figure 11. […] (A) Tumor growth and (B) overall survival were measured. Six animals were assayed per group. HD CIC.

PBMC = experiment: Cell viability by DiOC6 staining, flow cytometry (normal control cells); type: cell-based, human
Procedure: PBMCs were isolated from blood of healthy donors by Ficoll-Hypaque density gradient centrifugation. Blood from buffy coats was mixed 1:2 with PBS/1% BSA (both PAA, Cölbe, Germany) and used for a ficoll gradient (LymphoPrep, PAA, Cölbe, Germany). After the centrifugation at 800 g for 30 minutes, the leukocyte layer was removed and transferred to new tubes. Subsequently, these cells were washed 3 times with PBS/1%BSA and re-suspended in fresh medium, consisting of RPMI medium (PAA, Cölbe, Germany) with 10% fetal calf serum (Invitrogen, Karlsruhe, Germany), 2.5% hepes buffer solution (PAA, Cölbe, Germany), and 1% penicillin/streptomycin (PAA, Cölbe, Germany).
as §2

Wnt/beta catenin = conditions: Gen-plus drug library, 960 compounds; cited from earlier work
lymphoma cell lines = experiment: Cell viability by DiOC6 staining in lymphoma cell lines; type: cell-based, human; conditions: result in words
Procedure: as §2, §3

SU-DHL 4 = experiment: Cell viability by DiOC6 staining, flow cytometry; type: cell-based; conditions: Homo sapiens
Procedure: as §2, §3

Raji = experiment: Cell viability by DiOC6 staining, flow cytometry; type: cell-based; conditions: Homo sapiens
Procedure: as §2, §3

RPMI 8226 = experiment: Cell viability by DiOC6 staining, flow cytometry; type: cell-based; conditions: Homo sapiens, 72 h, 1x10^5 cells cultured three days, various concentrations
Procedure: as §2, §3

U266 = experiment: Cell viability by DiOC6 staining, flow cytometry; type: cell-based; conditions: Homo sapiens, U-266, 72 h, 1x10^5 cells cultured three days, various concentrations
Procedure: as §2, §3

OCI-Ly8 LAM53 = experiment: Cell viability by DiOC6 staining, flow cytometry; type: cell-based; conditions: Homo sapiens
Procedure: as §2, §3

β-catenin [3] = experiment: Western blot, β-catenin expression in KMS-18 cells; type: cell-based, human; conditions: KMS-18 cells treated for 24h
Procedure: as §4, §1, §5, §6

β-catenin [4] = experiment: Western blot, β-catenin expression in RPMI 8226 cells; type: cell-based, human; conditions: RPMI 8226 cells treated for 24h
Procedure: as §4, §1, §5, §6

PBL = experiment: Cell viability by DiOC6 staining, flow cytometry (normal control cells); conditions: Homo sapiens, PBL, 72 h
Procedure: Peripheral blood mononuclear cells (PBMC) and PBL were isolated from blood samples of healthy volunteers by Ficoll density gradient centrifugation (Lymphoprep, Nycomed, Oslo, Norway).
1x10^5 Cells were cultured in 3 ml Medium in 6-well plates. […] The apoptosis assay was performed with 3'3-dihexyloxacarbocyanine iodide (DiOC6) detecting mitochondrial membrane potential in viable cells, and propidium iodide (PI) which binds to DNA in necrotic cells, measured by a fluorescence-activated cell sorter (FACS).
For FACS analysis, 500µl staining solution containing 80 nM DiOC6 in FACS buffer, consisting of deficient RPMI-medium with 0.5% bovine serum albumin (BSA), was mixed with equal volumes of the cell sample in a glass tube and incubated at 37°C for 15 min. After a washing step with PBS/BSA 1% the cells were re-suspended in 500µl PBS/BSA 1%. After addition of 5µl PI-solution (100µg/ml) the cells were analyzed by FACS. Using this assay, viable cells reveal high fluorescence intensity for DiOC6 and a low expression for PI. In contrary, apoptotic cells show a low expression for DiOC6 and also a low expression for PI (2). Finally, necrotic cells show a low expression for DiOC6 and a high expression for PI.
PBMC and PBL derived from healthy individuals were used as normal controls. 1x10^5 cells were cultured with each compound using various concentrations for three days. Then cell viability was measured by DIOC6 staining by flow cytometry. Results represent data from two to four separate experiments each.
PBMC and PBL derived from healthy individuals were used as normal controls. 1x10^5 cells were cultured with each compound using various concentrations for three days. Then cell viability was measured by DIOC6 staining by flow cytometry. Results represent data from 2 to 4 separate experiments each.
1x10^5 Cells were cultured in 3 ml Medium in 6-well plates. […] The apoptosis assay was performed with 3' 3-dihexyloxacarbocyanine iodide (DiOC6) detecting mitochondrial membrane potential in viable cells, and propidium iodide (PI) which binds to DNA in necrotic cells, measured by a fluorescence-activated cell sorter (FACS).
PBL derived from healthy individuals were used as controls. 1x10^5 cells were cultured with each compound using various concentrations for three days. Then cell viability was measured by DIOC6 staining by flow cytometry and IC 50 rates were determined. Results represent data from 2 to 4 separate experiments each.
PBMC and PBL derived from healthy individuals were used as controls. 1x10^5 cells were cultured with each compound using various concentrations for three days.

[5] = tested on: lymphoma and myeloma cell lines; experiment: Titration of the optimal concentration; type: cell-based, human; conditions: without significantly deteriorating viability of normal PBMCs, data not shown
From the text: (§7) As a first step, we determined the optimal concentration of EA in various lymphoma and myeloma cell lines. Subsequently, we determined the optimal concentration of EA in PBMCs derived from healthy individuals in order to check for toxicity. […] The effect of DMSO as a toxic solvent was only observed in the myeloma cell line OPM-2 (Figure 1C). As a control, peripheral blood mononuclear cells (PBMCs) were investigated by FACS analysis. A toxic effect affecting the cells induced a shift from viable, DiOC6-positive cells to apoptotic, DiOC6-negative cells.
as §2
as §7, with “CIC” for “EA”, “(Fig. 7C).” for “(Figure 1C).”

| Structure (SMILES) | IC50 [1] | growth of primary myeloma cells [2] | IC50 (OPM-2 myeloma cells) | cell death in primary CLL cells (primary CLL cells) | beta catenin expression in lymphoma cells (beta catenin) | identified in TOPflash reporter screen (Wnt/beta catenin) | viability of lymphoma cell lines in vitro (lymphoma cell lines) | IC50 (RPMI 8226) | IC50 (U266) | β-catenin expression (β-catenin [3]) | β-catenin expression (β-catenin [4]) | IC50 (PBL) | most effective concentration to initialize cell death [5] | further results |
| --- | --- | --- | --- | --- | --- | --- | --- | --- | --- | --- | --- | --- | --- | --- |
| C=C(CC)C(=O)c1ccc(OCC(=O)O)c(Cl)c1Cl [EA, 2-[2,3-dichloro-4-(2-methylidenebutanoyl)phenoxy] acetic acid] | 30 µM | inhibits the growth | 22 µM | selectively induced cell death | down regulated | Wnt/beta catenin inhibitors | significantly (p<0.05) decreased | 8 µM | 60 µM | increased | slightly increased | 10 µM | 30 µM | IC50 (PBMC; Homo sapiens, 72 h, PBMC from healthy individuals, three days): > 400 µM; IC50 (SU-DHL 4; 72 h, SU-DHL 4, 1x10^5 cells cultured three days, various concentrations): 58 µM; IC50 (Raji; 72 h, 1x10^5 cells cultured three days, various concentrations): 33 µM; IC50 (OCI-Ly8 LAM53; 72 h, OCI-Ly8 LAM53, 1x10^5 cells cultured three days, various concentrations): 57 µM |
| Cc1cc(C2CCCCC2)n(O)c(=O)c1 [CIC, ciclopirox olamine] | 30 µM | inhibits the growth | 5 µM | selectively induced cell death | down regulated | Wnt/beta catenin inhibitors | significantly (p<0.05) decreased | 6 µM | 6 µM | decreased | slightly decreased | 9 µM | 30 µM | IC50 (PBMC; Homo sapiens, PBMC, after 72 h): > 400 µM; IC50 (PBMC; PBMC from healthy individuals, three days): > 400 µM; effect on normal PBMC and PBL (PBMC; normal PBMC and PBL, result in words): marginal; IC50 (SU-DHL 4; SU-DHL-4, after 72 h): 7 µM; IC50 (Raji; after 72 h): 6 µM; IC50 (OCI-Ly8 LAM53; OCI-Ly8, LAM-53, after 72 h): 2 µM |
